These results are taken from article PMC10344917, “Affinity and cooperativity modulate ternary complex formation to drive targeted protein degradation” (Nature Communications, 2023).

For test [1], the target named is T1, SMARCA2 (Homo sapiens, UniProt P51531).
T1 construct: endogenous in cells; host or cells: A375
In words: SMARCA2 degradation, MSD assay, dose response. It counts as cell-based. Set-up: key to AUC (area under the dose-response curve): sum of trapezoids of POC vs dose points, h = 1. The settings on record: A375 cells; for Dmax: A-375, SMARCA2 degraded; for Dmax / DC50: MSD assay, 2 h timepoint; for AUC (area under the dose-response curve): SMARCA2 MSD assay, 2 h; for DC50: SMARCA2 degradation. The method, then:
A375 cells were treated with SMARCA2 or BRD4 degraders for 2 h (4 h for BRD4) and generated lysates. SMARCA2 or BRD4 protein was measured with a variation of a sandwich ELISA that was assembled from commercially available antibodies as well as reagents and instrumentation procured from Meso Scale Discovery (MSD). Degradation parameter, DC50, is not suitable for PROTACs that induce partial/incomplete DR curves at a fixed time point; maximum drop in target protein level (Dmax) >>0. Conversely, the area under the curve (AUC) can be calculated as a degradation activity parameter for any DR curve, and it encompasses both the degradation potency (i.e., DC50) and efficacy (i.e., Dmax) of PROTACs.
A 1:3 compound dose-response titration was diluted in growth media (1:20), added to appropriate wells of a cell culture plate (1:10) and then assay plates were incubated at 37 °C, 5% CO2.
Plates were washed with 300 µL per well MSD wash buffer (MSD R61TX-1) between each step. Following the last incubation, plates were washed with MSD wash buffer then 150 µL of MSD read buffer (MSD R92TC-2) was added to each well. Plates were immediately read on a MSD plate reader (MSD Sector Imager 6000).
MSD electrochemiluminescence signals were subtracted by the average background signal from wells with lysis buffer alone. Normalized MSD values (POC) for individual compound treated wells were acquired by dividing background-subtracted assay signal by signal from vehicle control wells (cells + 0.1% DMSO) and multiplying by 100. This POC data was graphed using a nonlinear regression curve fit xy analysis and a log(inhibitor) vs response —variable slope (four parameter) model for dose response curves (Graphpad Prism 9, San Diego, CA, USA). To calculate area under the curve, all points on the curve were connected and vertical lines were drawn from each point down to y = 0, generating a series of trapezoids. The area of each trapezoid was determined using the equation A = (1/2)(h)(b1 + b2), where h = 1 (distance between points), b1 = POC of the first point and b2 = POC of the second point. The sum of all trapezoids provides an approximate area under the curve (AUC). For half-life (t1/2) determination in time course studies, a one-phase decay model was used for curve fitting and the time at which the curve crossed 50 POC was determined through interpolation (Graphpad Prism 9, San Diego, CA, USA).

In test [2] the target is T2, VHL/EloB/EloC (VBC) (Homo sapiens, UniProt P40337).
T2 construct: VHL (54-213), ElonginB (17-112) ElonginC (1-104); made in house
In words: SPR binary binding of PROTAC to VBC-functionalized surface. The settings on record: SPR; error SEM, N = 3; read-out: KLP (binary binding affinity between E3 ligase VHL and PROTAC). As for the experimental part:
(§1) SPR experiments were performed on a Biacore 8 K or T200 instrument (Cytiva). […] The running buffer during immobilization was PBS with 0.005% P20. Either high-density (3000-4000 RU) or low-density (300-400 RU) VBC-functionalized surfaces were created, followed by equilibration in the running buffer for 3 h.
PROTACs (10 mM stocks in 100% DMSO) were diluted to 400 nM in a running buffer (20 mM Tris pH 7.5, 200 mM NaCl, 0.02% P20). This stock solution was then serially diluted in the running buffer containing final 2% DMSO. […] For SMARCA2 analysis, biotinylated proteins were introduced on a Series S streptavidin (SA) sensor chip at high-density (3000-4000 RU).
(§2) Raw sensorgrams were processed by performing double reference subtraction, solvent correction, and analysis was done using Biacore Insight Evaluation Software. Kinetic analysis was performed by fitting data to a 1:1 Langmuir interaction model and a steady-state affinity model was used to evaluate equilibrium binding affinity.

Test [3] deals with T3, VBC / SMARCA2^BD ternary complex (Homo sapiens, UniProt P40337+P51531).
T3 construct: VHL (54-213), ElonginB (17-112) ElonginC (1-104); SMARCA2^BD 1373–1511 ∆1400–1417; His6 (N, cleaved yes); made in house
In words: SPR ternary complex binding, VBC surface with preformed PROTAC/SMARCA2 bromodomain complex. Conditions: for Kd: SPR, VHL, PROTAC, error SEM, N = 3, read-out: KLPT (ternary complex binding affinity). The method, then: as §1
PROTACs (10 mM in 100% DMSO) were initially prepared at 200 nM in a running buffer (20 mM Tris pH 8.0, 250 mM NaCl, 1 mM TCEP, 0.01% P20, 0.2 mg/ml BSA) with a concentration of 2% DMSO. This solution was mixed at 1:1 ratio with a solution of 5 μM of the SMARCA2 or BRD4 bromodomain protein in the running buffer. This complex was then serially diluted in the running buffer containing 2.5 μM SMARCA2 or BRD4 and 2% DMSO (5-point five-fold serial dilution). For ternary experiments, solutions were injected sequentially in single-cycle kinetic format without regeneration (contact time 60 s, flow rate 80 μL/min, dissociation time 300 s) using a stabilization period of 60 s and syringe wash (50% DMSO) between injections onto a low-density VBC-functionalized surface.
as §2

Test [4] concerns the target T4, SMARCA2^BD (Homo sapiens, UniProt P51531).
T4 construct: SMARCA2^BD 1373–1511 ∆1400–1417; made in house
Briefly: SPR binary binding of PROTAC to SMARCA2-functionalized surface. The settings on record: 1:1 Langmuir binding model, SEM N=3 or SD N=2, read-out: KTP (binary affinity PROTAC / SMARCA2). The method, then: PROTACs (10 mM stocks in 100% DMSO) were diluted to 400 nM in a running buffer (20 mM Tris pH 7.5, 200 mM NaCl, 0.02% P20). This stock solution was then serially diluted in the running buffer containing final 2% DMSO. Solutions were injected in multi-cycle kinetic format without regeneration (contact time 60 s, flow rate 80 μL/min, dissociation time 120 s) using a stabilization period of 30 s and syringe wash (50% DMSO) between injections onto a high-density VBC-functionalized surface. For SMARCA2 analysis, biotinylated proteins were introduced on a Series S streptavidin (SA) sensor chip at high-density (3000-4000 RU).
as §2

By Dmax is commonly meant the greatest extent of degradation seen. For orientation: DC50 means the midpoint of the concentration-degradation curve.

T4 sequence (P51531 1373-1493 isoform P51531-2): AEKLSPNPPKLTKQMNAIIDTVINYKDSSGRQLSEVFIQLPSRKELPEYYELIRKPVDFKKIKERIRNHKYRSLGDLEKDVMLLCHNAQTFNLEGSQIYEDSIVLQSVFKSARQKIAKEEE
T3 sequence (P40337 54-213): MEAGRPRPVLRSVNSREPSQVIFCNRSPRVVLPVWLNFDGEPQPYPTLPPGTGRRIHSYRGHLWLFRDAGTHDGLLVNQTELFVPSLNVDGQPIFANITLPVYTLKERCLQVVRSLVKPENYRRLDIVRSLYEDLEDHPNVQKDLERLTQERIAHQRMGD
T3 sequence (P51531 other isoform, or with tags, fused parts or gaps): as the sequence (P51531 1373-1493 isoform P51531-2) above
T3 sequence (Q15370 1-104, further chain): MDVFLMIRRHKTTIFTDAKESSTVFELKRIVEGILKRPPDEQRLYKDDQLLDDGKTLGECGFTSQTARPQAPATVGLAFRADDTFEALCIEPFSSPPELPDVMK
T3 sequence (Q15369 17-112, further chain): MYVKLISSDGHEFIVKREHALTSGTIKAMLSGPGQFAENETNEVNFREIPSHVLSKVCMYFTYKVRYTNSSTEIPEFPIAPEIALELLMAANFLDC
T2 sequence (Q15369 17-112): as the sequence (Q15369 17-112, further chain) above
T2 sequence (Q15370 1-104, further chain): as the sequence (Q15370 1-104, further chain) above
T2 sequence (P40337 54-213): as the sequence (P40337 54-213) above
T1 sequence (P51531 whole entry): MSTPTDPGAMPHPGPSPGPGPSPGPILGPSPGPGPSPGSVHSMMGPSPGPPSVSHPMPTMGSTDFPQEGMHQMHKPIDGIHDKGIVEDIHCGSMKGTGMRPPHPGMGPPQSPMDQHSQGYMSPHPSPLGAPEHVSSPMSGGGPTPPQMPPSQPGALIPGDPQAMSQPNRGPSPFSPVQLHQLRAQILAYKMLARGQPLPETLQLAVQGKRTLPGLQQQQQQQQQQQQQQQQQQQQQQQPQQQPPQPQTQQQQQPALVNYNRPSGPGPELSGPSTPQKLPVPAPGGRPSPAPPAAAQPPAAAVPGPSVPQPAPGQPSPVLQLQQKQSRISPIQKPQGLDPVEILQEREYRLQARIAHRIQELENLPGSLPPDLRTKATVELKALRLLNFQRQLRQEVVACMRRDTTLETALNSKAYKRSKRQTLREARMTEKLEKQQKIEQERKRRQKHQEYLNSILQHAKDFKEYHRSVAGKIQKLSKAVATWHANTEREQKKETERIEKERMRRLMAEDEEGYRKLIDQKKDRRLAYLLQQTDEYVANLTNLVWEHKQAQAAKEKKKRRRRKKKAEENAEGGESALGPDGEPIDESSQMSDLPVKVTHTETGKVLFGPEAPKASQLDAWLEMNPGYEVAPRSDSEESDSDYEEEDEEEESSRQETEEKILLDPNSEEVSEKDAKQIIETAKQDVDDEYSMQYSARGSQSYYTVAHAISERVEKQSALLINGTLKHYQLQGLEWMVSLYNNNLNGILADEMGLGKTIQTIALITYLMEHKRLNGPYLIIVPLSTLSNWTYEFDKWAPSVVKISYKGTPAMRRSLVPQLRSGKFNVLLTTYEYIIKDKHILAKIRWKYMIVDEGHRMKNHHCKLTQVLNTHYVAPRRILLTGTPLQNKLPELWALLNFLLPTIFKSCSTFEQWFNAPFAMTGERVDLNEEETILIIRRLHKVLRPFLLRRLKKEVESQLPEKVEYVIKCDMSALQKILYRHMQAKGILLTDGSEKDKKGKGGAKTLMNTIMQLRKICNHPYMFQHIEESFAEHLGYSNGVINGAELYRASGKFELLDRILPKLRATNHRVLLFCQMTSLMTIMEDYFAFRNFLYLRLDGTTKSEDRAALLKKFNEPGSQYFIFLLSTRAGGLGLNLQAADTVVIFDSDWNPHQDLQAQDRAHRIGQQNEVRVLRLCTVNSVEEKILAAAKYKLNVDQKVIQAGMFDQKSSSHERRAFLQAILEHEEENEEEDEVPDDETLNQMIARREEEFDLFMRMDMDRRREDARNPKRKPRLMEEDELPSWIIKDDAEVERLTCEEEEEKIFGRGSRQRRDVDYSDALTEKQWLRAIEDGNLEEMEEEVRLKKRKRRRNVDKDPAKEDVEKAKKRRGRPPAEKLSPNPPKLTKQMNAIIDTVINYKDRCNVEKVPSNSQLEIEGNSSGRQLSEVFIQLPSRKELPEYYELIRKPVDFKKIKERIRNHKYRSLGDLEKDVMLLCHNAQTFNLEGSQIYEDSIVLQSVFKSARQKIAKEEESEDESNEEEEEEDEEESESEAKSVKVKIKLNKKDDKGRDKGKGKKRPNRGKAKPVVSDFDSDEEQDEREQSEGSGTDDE

For `Cc1ncsc1-c1ccc(CNC(=O)C2C[C@@H](O)CN2C(=O)C(NC(=O)C2(F)CC2)C(C)(C)C)c(OCCc2ccc(CN3CCN(c4cc(-c5ccccc5O)nnc4N)CC3)cc2)c1` (stereo in doubt) [Compound 11, (2R,4R)-N-(2-(4-((4-(3-amino-6-(2-hydroxyphenyl)pyridazin-4-yl)piperazin-1-yl)methyl)phenethoxy)-4-(4-methylthiazol-5-yl)benzyl)-1-((R)-2-(1-fluorocyclopropane-1-carboxamido)-3,3-dimethylbutanoyl)-4-hydroxypyrrolidine-2-carboxamide, reference compound], in test [1], the Dmax was determined as 53%, the “AUC (area under the dose-response curve)” value is listed as 119 and it took 221 nM to reach half-maximal degradation (DC50). Besides, in test [2], the Kd stood at 59 ± 5 nM. Also, in test [3], the “α (cooperativity, KLP/KLPT)” value turned out to be 0.55 and the Kd is 108 ± 14 nM. Besides, the Kd in test [4] is 302 ± 80 nM.

On to `Cc1ncsc1-c1ccc([C@H](C)NC(=O)[C@@H]2C[C@@H](O)CN2C(=O)[C@@H](NC(=O)c2ccnc(N3CCN(c4cc(-c5ccccc5O)nnc4N)CC3)c2)C(C)(C)C)cc1` [Compound 1, 2-(4-(3-Amino-6-(2-hydroxyphenyl)pyridazin-4-yl)piperazin-1-yl)-N-((S)-1-((2S,4R)-4-hydroxy-2-(((S)-1-(4-(4-methylthiazol-5-yl)phenyl)ethyl)carbamoyl)pyrrolidin-1-yl)-3,3-dimethyl-1-oxobutan-2-yl)isonicotinamide], for which, in test [1], the Dmax was 98%, the “AUC (area under the dose-response curve)” value came out at 13 and the DC50 came to 28 nM. The Kd in test [2] was 60 ± 3 nM. Besides, in test [3], the “α (cooperativity, KLP/KLPT)” value is on record as 12.8 and the Kd was 4.7 ± 1 nM. Besides, the Kd in test [4] came to 95 ± 25.5 nM.

For the compound `Cc1ncsc1-c1ccc([C@H](C)NC(=O)[C@@H]2C[C@@H](O)CN2C(=O)[C@@H](NC(=O)c2cccc(N3CCN(c4cc(-c5ccccc5O)nnc4N)CC3)n2)C(C)(C)C)cc1` [Compound 2, 6-(4-(3-Amino-6-(2-hydroxyphenyl)pyridazin-4-yl)piperazin-1-yl)-N-((S)-1-((2S,4R)-4-hydroxy-2-(((S)-1-(4-(4-methylthiazol-5-yl)phenyl)ethyl)carbamoyl)pyrrolidin-1-yl)-3,3-dimethyl-1-oxobutan-2-yl)picolinamide], in test [1], the Dmax stood at 95%, the “AUC (area under the dose-response curve)” value came out at 28 and half-maximal degradation (DC50) was put at 95 nM. For the same compound, the Kd in test [2] is 210 ± 18 nM. In test [3], the “α (cooperativity, KLP/KLPT)” value stood at 6.5 and the Kd came to 33 ± 4 nM. Further, in test [4], the Kd was 196 ± 23 nM.

Regarding `Cc1ncsc1-c1ccc([C@H](C)NC(=O)[C@@H]2C[C@@H](O)CN2C(=O)[C@@H](NC(=O)c2cccc(N3CCN(c4cc(-c5ccccc5O)nnc4N)CC3)c2)C(C)(C)C)cc1` [Compound 4, (2S,4R)-1-((S)-2-(3-(4-(3-Amino-6-(2-hydroxyphenyl)pyridazin-4-yl)piperazin-1-yl)benzamido)-3,3-dimethylbutanoyl)-4-hydroxy-N-((S)-1-(4-(4-methylthiazol-5-yl)phenyl)ethyl)pyrrolidine-2-carboxamide], in test [1], the Dmax came to 96%, the “AUC (area under the dose-response curve)” value is 26 and half-maximal degradation (DC50) was put at 99 nM. For the same compound, in test [2], the Kd came out at 166 ± 15 nM. In addition, in test [3], the “α (cooperativity, KLP/KLPT)” value was found to be 2.6 and the Kd was 64 ± 7 nM. Moreover, in test [4], the Kd was found to be 232 ± 35 nM.

With `Cc1ncsc1-c1ccc([C@H](C)NC(=O)[C@@H]2C[C@@H](O)CN2C(=O)[C@@H](NC(=O)c2csc(N3CCN(c4cc(-c5ccccc5O)nnc4N)CC3)n2)C(C)(C)C)cc1` [Compound 5, 2-(4-(3-Amino-6-(2-hydroxyphenyl)pyridazin-4-yl)piperazin-1-yl)-N-((S)-1-((2S,4R)-4-hydroxy-2-(((S)-1-(4-(4-methylthiazol-5-yl)phenyl)ethyl)carbamoyl)pyrrolidin-1-yl)-3,3-dimethyl-1-oxobutan-2-yl)thiazole-4-carboxamide], in test [1], the Dmax stood at 96%, the “AUC (area under the dose-response curve)” value is on record as 28 and the 50% degradation concentration (DC50) is 112 nM. Further, in test [2], the Kd turned out to be 84.7 ± 5 nM. Further, in test [3], the “α (cooperativity, KLP/KLPT)” value is recorded as 1.8 and the Kd was 46.8 ± 6.7 nM. Further, the Kd in test [4] stood at 206 ± 34 nM.

As for `Cc1ncsc1-c1ccc([C@H](C)NC(=O)[C@@H]2C[C@@H](O)CN2C(=O)[C@@H](NC(=O)CN2CCN(c3cc(-c4ccccc4O)nnc3N)CC2)C(C)(C)C)cc1` [Compound 6, (2S,4R)-1-((S)-2-(2-(4-(3-Amino-6-(2-hydroxyphenyl)pyridazin-4-yl)piperazin-1-yl)acetamido)-3,3-dimethylbutanoyl)-4-hydroxy-N-((S)-1-(4-(4-methylthiazol-5-yl)phenyl)ethyl)pyrrolidine-2-carboxamide, reference compound], in test [1], the Dmax was 96%, the “AUC (area under the dose-response curve)” value turned out to be 26 and the DC50 amounted to 85 nM. For the same compound, the Kd in test [2] came out at 11 ± 1 nM. In addition, in test [3], the “α (cooperativity, KLP/KLPT)” value is 2 and the Kd is 5.6 ± 2 nM. For the same compound, the Kd in test [4] amounted to 14.2 ± 1.6 nM.

As for `Cc1ncsc1-c1ccc([C@H](C)NC(=O)[C@@H]2C[C@@H](O)CN2C(=O)[C@@H](NC(=O)Cc2ccnc(N3CCN(c4cc(-c5ccccc5O)nnc4N)CC3)c2)C(C)(C)C)cc1` [Compound 7, (2S,4R)-1-((S)-2-(2-(2-(4-(3-Amino-6-(2-hydroxyphenyl)pyridazin-4-yl)piperazin-1-yl)pyridin-4-yl)acetamido)-3,3-dimethylbutanoyl)-4-hydroxy-N-((S)-1-(4-(4-methylthiazol-5-yl)phenyl)ethyl)pyrrolidine-2-carboxamide], in test [1], the Dmax worked out at 55%, the “AUC (area under the dose-response curve)” value turned out to be 122 and the DC50 stood at 850 nM. Moreover, the Kd in test [2] came to 9 ± 2 nM. In test [3], the “α (cooperativity, KLP/KLPT)” value is on record as 0.11 and the Kd turned out to be 80 ± 6 nM. Besides, in test [4], the Kd amounted to 46 ± 8.5 nM.
